# Measured values reported in ChEMBL document CHEMBL1124983, “Benzophenone dicarboxylic acid antagonists of leukotriene B4. 1. Structure-activity relationships of the benzophenone nucleus” (J Med Chem, 1990).
# How the values were obtained:
# Type in all cases: functional
# [1] = molecular target: Leukotriene B4 receptor 1 (Homo sapiens) (UniProt Q15722); assay: Antagonistic activity against Leukotriene B4 receptor by using [3H]LTB4 as a radioligand at a concentration of 10e-5 M
# [2] = molecular target: Leukotriene B4 receptor 1 (Homo sapiens) (UniProt Q15722); assay: Antagonistic activity against Leukotriene B4 receptor by using [3H]LTB4 as a radioligand at a concentration of 10e-6 M
# [3] = molecular target: Leukotriene B4 receptor 1 (Homo sapiens) (UniProt Q15722); assay: Antagonistic activity against Leukotriene B4 receptor by using [3H]LTB4 as a radioligand at a concentration of 10e-7 M
# Sequence of Leukotriene B4 receptor 1 (Homo sapiens) (Q15722 whole entry): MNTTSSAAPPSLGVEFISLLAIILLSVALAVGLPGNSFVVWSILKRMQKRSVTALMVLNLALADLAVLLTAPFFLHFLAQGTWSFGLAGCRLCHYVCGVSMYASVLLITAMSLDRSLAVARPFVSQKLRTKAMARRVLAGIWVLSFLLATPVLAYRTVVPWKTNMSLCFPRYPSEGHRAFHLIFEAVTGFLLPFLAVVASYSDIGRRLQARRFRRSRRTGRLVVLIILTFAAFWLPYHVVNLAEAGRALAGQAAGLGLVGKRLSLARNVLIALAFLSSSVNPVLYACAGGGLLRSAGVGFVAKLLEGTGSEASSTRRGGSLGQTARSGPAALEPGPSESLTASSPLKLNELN
SMILES,inhibition [1],inhibition [2],inhibition [3]
CCCCCCCCCCOc1ccc(C(=O)c2ccccc2C(=O)O)cc1CC(=O)O,60%,7%,–
O=C(O)CCc1cc(S(=O)(=O)c2cccc(C(=O)O)c2)ccc1OCCCCCCc1ccccc1,100%,79%,24%
CCCCCCCCCCOc1ccc(C(=O)c2cccc(C(=O)O)c2)cc1Cc1nnn[nH]1,83%,34%,–
CCCCCCCCCCOc1ccc(C(O)c2cccc(C(=O)O)c2)cc1CCC(=O)O (stereo unspecified),91%,55%,–
CCCCCCCCCCOc1ccc(C(=O)c2ccc(C(=O)O)cc2)cc1CC(=O)O,76%,35%,–
O=C(O)CCc1cc(C(=O)c2cccc(C(=O)O)c2)ccc1OCCCCCCc1ccccc1,100%,85%,–
CCCCCCCCCCOc1ccc(C(=O)c2ccccc2CC(=O)O)cc1CCC(=O)O,100%,79%,–
CCCCCCCCCCOc1ccc(Cc2cccc(C(=O)O)c2)cc1CCC(=O)O,88%,41%,–
C=C(c1cccc(C(=O)O)c1)c1ccc(OCCCCCCCCCC)c(CCC(=O)O)c1,71%,39%,–
CCCCCCCCCCOc1ccc(C(=O)c2cccc(C(=O)O)c2)cc1CCc1nnn[nH]1,96%,55%,–
CCCCCCCCCCOc1ccc(C(=O)c2cccc(C(=O)O)c2)c(O)c1,19%,13%,–
CCCCCCCCCCOc1ccc(C(=O)c2cccc(Cc3nnn[nH]3)c2)cc1CCC(=O)O,99%,68%,–
O=C(O)CCc1cc(Sc2cccc(C(=O)O)c2)ccc1OCCCCCCc1ccccc1,102%,67%,29%
O=C(O)CCc1cc(/C(=N\O)c2cccc(C(=O)O)c2)ccc1OCCCCCCc1ccccc1,96%,84%,30%
O=C(O)CCc1cc(NC(=O)c2cccc(C(=O)O)c2)ccc1OCCCCCCc1ccccc1,98%,73%,–
CCCCCCCCCCOc1ccc(C(=O)c2cccc(C(=O)OCC)c2)cc1Cc1nnn[nH]1,0%,14%,–
CCCCCCCCCCOc1ccc(C(=O)c2cccc(C(=O)O)c2)cc1C(=O)O,76%,21%,–
CCCCCCCCCCOc1ccc(C(=O)c2cccc(C(=O)OCC)c2)cc1CC(=O)OCC,0%,0%,–
CCCCCCCCCCOc1ccc(C(=O)c2cccc(-c3nn[nH]n3)c2)cc1CCC(=O)OCC,0%,1%,–
CCCCCCCCCCOc1ccc(C(=O)c2cccc(-c3nnn[nH]3)c2)cc1Cc1nnn[nH]1,81%,20%,–
CCCCCCCCCCOc1ccc(C(=O)c2cccc([N+](=O)[O-])c2)cc1CCC(=O)O,13%,0%,–

SMILES,inhibition [1],inhibition [2],inhibition [3]
O=C(O)CCc1cc([S+]([O-])c2cccc(C(=O)O)c2)ccc1OCCCCCCc1ccccc1 (stereo unspecified),79%,71%,37%
CCCCCCCCCCOc1ccc(C(=O)c2cccc(S(=O)(=O)NC)c2)cc1CCC(=O)O,22%,9%,–
CCCCCCCCCCOc1ccc(C(=O)c2cccc(C(=O)O)c2)c(CC(=O)O)c1,74%,23%,–
CCCCCCCCCCOc1ccc(C(=O)c2cccc(-c3nn[nH]n3)c2)cc1CCC(=O)O,98%,71%,–
CCCCCCCCCCOc1ccc(C(=O)c2cccc(C(=O)O)c2)cc1CC(=O)O,73%,27%,–
O=C(O)CCc1cccc(NC(=O)c2cccc(C(=O)O)c2)c1OCCCCCCc1ccccc1,24%,0%,–
CCCCCCCCCCOc1ccc(C(=O)c2ccccc2)cc1CC(=O)O,24%,1%,–
CCCCCCCCCCOc1ccc(C(O)c2cccc(C(=O)O)c2)cc1 (stereo unspecified),0%,3%,–
CCCCCCCCCCOc1ccc(/C(=N\O)c2cccc(C(=O)O)c2)cc1CCC(=O)O,92%,61%,–
CCCCCCCCCCOc1ccc(C(=O)c2cccc(C(=O)NC)c2)cc1CCC(=O)NC,0%,0%,–
CCCCCCCCCCOc1ccc(Oc2cccc(C(=O)O)c2)cc1CCC(=O)O,88%,41%,–
CCCCCCCCCCOc1ccc(C(=O)c2cccc(-c3nn[nH]n3)c2)cc1CC(=O)O,93%,28%,–
CCCCCCCCCCOc1ccc(C(OCC)c2cccc(C(=O)O)c2)cc1CCC(=O)O (stereo unspecified),78%,26%,–
CCCCCCCCCCOc1ccc(C(O)c2ccc(C(=O)O)cc2)cc1CC(=O)O (stereo unspecified),59%,15%,–
CCCCCCCCCCOc1ccc(C(=O)c2cccc(C(=O)O)c2)cc1CCCC(=O)O,89%,52%,–
CCCCCCCCCCOc1ccc(C(=O)Cc2ccccc2C(=O)O)cc1CCC(=O)O,95%,53%,–
CCCCCCCCCCOc1ccc(C(=O)CCCC(=O)O)cc1CC(=O)O,39%,2%,–
CCCCCCCCCCOc1ccc(C(=O)c2cccc(C(=O)O)c2)cc1CCC(=O)O,95%,60%,–
CCCCCCCCCCOc1ccc(C(=O)c2cccc(C#N)c2)cc1CC#N,3%,0%,–
CCCCCCCCCCOc1ccc(C(O)c2cccc(C(=O)O)c2)cc1CC(=O)O (stereo unspecified),75%,28%,–
